Here are results for 4 compounds from ChEMBL document CHEMBL5104207, “Synthesis, biological evaluation and computational studies of pyrazole derivatives as Mycobacterium tuberculosis CYP121A1 inhibitors” (RSC Med Chem, 2022).

Activity calls are given as the source filed them. The calls are words filed in the database; no cut-off is given here.

The test concerns Mycobacterium tuberculosis. In words: Binding affinity to BTFA labelled recombinant Mycobacterium tuberculosis CYP121A1 C171S mutant assessed as change in chemical shift perturbation incubated for 15 mins by 19F NMR spectroscopy.
On to `CCOc1ccc(-c2nn(-c3ccc(Cl)cc3)cc2Cn2cncn2)cc1`, for which the outcome was Active.
With `COc1ccc(-c2nn(-c3ccc(Cl)cc3)cc2Cn2cncn2)cc1`, the outcome was Active.
The entry for `COc1ccc(-c2nn(-c3ccc(F)cc3)cc2Cn2ccnc2)cc1` is “Active”; for `CC(C)Oc1ccc(-c2nn(-c3ccc(F)cc3)cc2Cn2ccnc2)cc1` it is “Active”.
